These results are taken from article PMC11600510 (Journal of Chemical Information and Modeling, 2024).

In data set [1] the target is T1, Spike RBD/ACE2 (19–615) interaction (Severe acute respiratory syndrome coronavirus 2, UniProt P0DTC2).
T1 construct: S protein RBD (aa residues 319–541) of SARS-CoV-2; expressed in transfected cells; host or cells: HEK293T
Description: cell-based. The format is cell-based, SARS-CoV-2. The conditions noted are these: for inhibition at 10 µM: HEK-293T, 48 h, read-out: suppression of Spike RBD/ACE2 (19–615) interaction.

A further data set relates to HEK293T cells. Description: MTT cytotoxicity assay in HEK293T cells. The format is cell-based. The conditions noted are these: 100 μM, 48 h. Here is the method: (§1) Chemical compounds were dissolved and serially diluted in DMSO. Their cytotoxicity was assessed using an MTT assay. Briefly, HEK293T, SH-SY5Y or Vero E6 cells were cultured in 96-well plates (4 × 10^4 cells/well) at 37 °C in a 5% CO2 atmosphere. Cells were treated for 48 h with varying concentrations of the compounds (100–0.1 μM) or solvent. […] Treated cells were incubated for 4 h with […] MTT (Applichem). After incubation, the MTT-containing medium was removed and formazan crystals were dissolved in DMSO. The optical density (OD) of formazan solution at 570 and 630 nm was measured in a SPARK plate reader (Tecan).

For the next data set, the system named is Vero E6 cells. Description: MTT toxicity assay in Vero E6 cells. The format is cell-based. The conditions noted are these: 48 h. The procedure: as §1

Turning to `Cc1cc(O)c2c(c1)C(=O)c1cc(O)cc(O)c1C2=O` [Emodin, reference compound], the “suppression of Spike/ACE2 interaction” value in data set [1] (100 μM) is roughly 27%. Besides, the cytotoxicity entry with HEK293T cells is given as “non-cytotoxic”.
`Clc1ccc(/C=C/C[n+]2cn(Cc3ccc4ccccc4c3)c3ccccc32)cc1.[Br-]` [CKP-32, (E)-3-(3-(4-Chlorophenyl)allyl)-1-(naphthalen-2-ylmethyl)-1H-benzo[d]imidazol-3-ium Bromide]: the melting point is 166 to 167 °C. For the same compound, in data set [1], the inhibition at 10 µM came out at 70%. Besides, the “toxicity against Vero E6 cells” value with Vero E6 cells is given as “toxic”.
Consider `O=[N+]([O-])c1ccc(/C=C/C[n+]2cn(CCc3ccc4ccccc4c3)c3ccccc32)cc1.[Br-]` [CKP-47, (E)-1-(2-(Naphthalen-2-yl)ethyl)-3-(3-(4-nitrophenyl)allyl)-1H-benzo[d]imidazol-3-ium Bromide], for which the melting point is 176 to 177 °C (dec.). In addition, the inhibition at 10 µM in data set [1] came out at 34%. For the same compound, the “toxicity against Vero E6 cells” value with Vero E6 cells is on record as “toxic”.
